In patent publication US8969312B2, “Low side effect pharmaceutical composition containing antituberculosis drugs” (priority 2011, dated 2015):

What was measured:
[1] = biological target: cytochrome P450 2E1 (CYP2E1) (Homo sapiens, UniProt P05181); assay: CYP2E1 High Throughput Inhibitor Screening Kit, cDNA synthesized microsomal CYP2E1 (MFC to HFC); conditions: for Minimum Effective Dose: Table 3, minimum tested concentration (mg/L) × volume of human liver and intestine (3L)
From the text: CYP2E1 High Throughput Inhibitor Screening Kit (BD Bioscience, USA) was used to screen the cytochrome P450 (CYP2E1) inhibitors from 22 Chinese medicine guiding drugs and 10 excipients and microsomal cytochrome P450 (CYP2E1) was synthesized from cDNA (BD Bioscience, USA). The principle of the screening kit is to measure the percentage of CYP2E inhibition, after adding the test sample to substrate MFC (7-Methoxy-4-trifluoromethyl coumarin) and cytochrome P450 (CYP2E1), by measuring the synthesis of standard CYP2E1 metabolite (HFC, 7-Hydroxy-4-trifluoromethyl coumarin) and use control HFC as baseline.
a. 149 μl NADPH-Cofactor Mix and 1 μl 20 mM DDTC were added to the #1 well in a 96-well plate and mixed thoroughly,
b. Add 100 μl Cofactor/acetonitrile mix to #2 to #12 wells, and well #1 to #8 are positive control. Well #9 and 10 are control and well #11 and #12 are blank,
c. […] Preparation of Experimental Groups: a. […] Transfer 50 μl from well #1 and #2 and added to well #3 and mixed thoroughly (triplicate for each sample), 3. Initiation and Termination of the Reaction: a. The 96-well plate was incubated at 37° C. for […], b. 100 μl of Enzyme/Substrate Mix was added to every well and mixed thoroughly except the blank wells, c. The 96-well plate was incubated at 37° C. for 40 min, d. 75 μl Stop Solution was added to every well and mixed thoroughly, e. Immediately add 100 μl Enzyme/Substrate Mix to blank wells and mixed thoroughly, f. Measure with a Fluoroskan Ascent FL (Thermo Electron Corporation, Finland) with excitation at 405 nm and emission at 538 nm, 4. The fluorescence was transverse into CYP 2E1 metabolite standard (HFC) concentration (pmol) and the percentage (%) of CYP 2E1 inhibition was calculated using control as baseline by following equation: […]

amidase = assay: Mouse liver microsomal amidase, isoniazid to isonicotinic acid; format: biochemical
From the text: Mouse liver microsomes were used as the source of amidase, and isoniazid was used as the amidase metabolism drugs. quantitative isoniazid was catalyzed into metabolites isonicotinic acid (INA) by amidase, and was used as the index for measurement of the amidase activity for establishment of the platform for screening in vitro amidase activity inhibitors. The HPLC system includes a Shimadzu the LC-LOAD pump, 1 Shimadzu system control and a Shimadzu autosampler (Shimadzu Scientific Instrument, Japan). A C18 column (particle size 5 μm, inner diameter of 50×4.6 mm, 25 cm) containing 70% methanol and 30% ammonium formate (50 mM, pH=2.5) of the mobile phase for HPLC separation, and the experimental steps are outlined as follows:
(2) An aliquot of 150 μL mouse liver microsomal solution was added to 100 μL isoniazid solution in 35 μL 67 mM potassium phosphate buffer solution ([…], pH=7) with a final concentration at 3 mM, and then mixed thoroughly with 15 μL amidase inhibitor (deionized water was added in the control group). (3) Incubation at 37° C. water bath for 30 minutes. (4) An aliquot of 300 μL acetonitrile (ACN) was added and mixed thoroughly, and incubated for 6 minutes. (5) An aliquot of 30 μL perchloric acid was then mixed and incubated for 6 minutes. (6) The mixture was centrifuged at 13000 g for 6 minutes. (7) After centrifugation, 100 μL of the supernatant was injected into HPLC. (8) Methanol ammonium formate (50 mM, pH=2.5)=70:30 (V/V) was selected as the mobile phase, and the flow rate was controlled at […] and detected at 270 nm UV. […] The amidase inhibition % was then calculated using the following formula: […]

[2] = biological target: human liver microsomal cytochrome P450 2E1 (CYP2E1) (Homo sapiens, UniProt P05181); assay: Human liver microsomal CYP2E1, chlorzoxazone 6-hydroxylation;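 further: chlorzoxazone added as substrate, 6-hydroxychlorzoxazone formation quantified by LC/MS/MS after 30 min at 37 °C with NADP+ regenerating system, compared against solvent control without test sample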
human liver microsomal cytochrome P450 2E1 (CYP2E1), sequence (P05181 whole entry): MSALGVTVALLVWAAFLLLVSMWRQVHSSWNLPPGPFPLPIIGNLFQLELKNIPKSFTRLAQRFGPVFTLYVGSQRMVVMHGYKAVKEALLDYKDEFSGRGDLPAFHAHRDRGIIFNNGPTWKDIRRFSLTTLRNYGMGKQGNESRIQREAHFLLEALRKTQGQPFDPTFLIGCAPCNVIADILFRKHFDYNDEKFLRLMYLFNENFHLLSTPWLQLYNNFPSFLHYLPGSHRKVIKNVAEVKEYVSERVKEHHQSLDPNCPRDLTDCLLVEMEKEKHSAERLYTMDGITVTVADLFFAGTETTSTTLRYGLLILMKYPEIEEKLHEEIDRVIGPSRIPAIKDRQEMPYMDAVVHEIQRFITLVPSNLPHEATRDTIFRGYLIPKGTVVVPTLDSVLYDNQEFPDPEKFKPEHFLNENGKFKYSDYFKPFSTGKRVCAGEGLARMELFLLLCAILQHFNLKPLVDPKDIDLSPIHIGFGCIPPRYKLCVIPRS

CYP2E1 = CYP2E1 (Homo sapiens, UniProt P05181); assay: as above; conditions: human
CYP2E1, sequence (P05181 whole entry): as above

[3] = Table 6, minimum tested concentration (mg/L) × volume of human liver and intestine (3 L)
[4] = human liver microsomes, pH 7.4, probe Chlorzoxazone

cytochrome P450 2E1 (CYP2E1), sequence (P05181 whole entry): as above

SMILES	Amidase inhibition (amidase; 1 uM) [%]	Amidase inhibition (amidase; 10 uM) [%]	Amidase inhibition (amidase; 100 uM) [%]	Minimum Effective Dose [2, 3] [mg]	also measured
Oc1cc(O)c2c(c1)O[C@H](c1ccc(O)c(O)c1)[C@@H](O)C2 [(+)-Catechin]	−2.1 ± 1.1	−11.8 ± 20.2	1.3 ± 6.3		Inhibition of CYP 2E1 ([1]; 16.5 μM): 41.53%; Inhibition of CYP 2E1 ([1]; 66 μM): 16.45%; Minimum Effective Dose [1]: 16 mg
O=C1c2c(O)cc(O)cc2O[C@H](c2ccc(O)c(O)c2)[C@H]1O [(+)-Taxifolin]	36.8 ± 11.5	32.2 ± 5.8	36.4 ± 3.4		Minimum Effective Dose [1]: 17 mg
Oc1cc(O)c2c(c1)O[C@H](c1cc(O)c(O)c(O)c1)[C@H](O)C2 [(−)-Epigallocatechin]	−1.2 ± 2.1	−7.3 ± 7.6	2.2 ± 4.1	17	Inhibition of CYP 2E1 ([2]; 16.5 μM): 38.95 ± 1.92%; Inhibition of CYP 2E1 ([2]; 33 μM): 36.40 ± 2.18%; Inhibition of CYP 2E1 ([2]; 66 μM): 57.08 ± 1.85%
CC1=CC(=O)NS(=O)(=O)O1 [Acesulfame K]					inhibition at 30 min, 0.08 % (w/v) (CYP2E1; [4]): 7.1 ± 2.3%; inhibition at 30 min, […] (w/v) (CYP2E1; [4]): 3.9 ± 2.7%; inhibition at 30 min, 0.167 % (w/v) (CYP2E1; microsomes, pH 7.4): 14.5 ± 1.9%; Minimum Effective Dose ([2]; Table 7): 10 mg; Amidase inhibition (amidase; 0.0005%): −12.4 ± 27.4%; Amidase inhibition (amidase; 0.005%): −167.2 ± 167.3%; Amidase inhibition (amidase; 0.05%): 24.3 ± 4.9%
O=c1cc(-c2ccc(O)cc2)oc2cc(O)cc(O)c12 [Apigenin]	−10.2 ± 20.3	13.2 ± 3.4		15	
O=c1cc(-c2ccccc2)oc2cc(O)c(O)c(O)c12 [Baicalein]	2.8 ± 15.1	5.7 ± 2.6	15.6 ± 1.0	15	
O=C(O)[C@H]1O[C@@H](Oc2cc3oc(-c4ccccc4)cc(=O)c3c(O)c2O)[C@H](O)[C@@H](O)[C@@H]1O [Baicalin]	2.1 ± 7.5	15.2 ± 6.3	34.8 ± 10.2	24	
O=C(O)CC(O)(CC(=O)O)C(=O)O [Citric acid]					inhibition at 30 min, 16.5 µM (CYP2E1; [4]): 9.9 ± 3.1%; inhibition at 30 min, 33 µM (CYP2E1; [4]): 15.5%; inhibition at 30 min, 66 µM (CYP2E1; [4]): 20.5 ± 1.8%; Minimum Effective Dose ([2]; Table 7): 10 mg
O=c1c(-c2ccc(O)cc2)coc2cc(O)ccc12 [Daidzein]	−12.1 ± 6.3	1.0 ± 7.4	16.2 ± 12.6	14	
COc1ccc(-c2cc(=O)c3c(O)cc(O[C@@H]4O[C@H](CO[C@@H]5O[C@@H](C)[C@H](O)[C@@H](O)[C@H]5O)[C@@H](O)[C@H](O)[C@H]4O)cc3o2)cc1O [Diosmin]	0.3 ± 8.1	−0.7 ± 7.7	1.6 ± 5.1	33	
CCCCCCCCCCCC1=C(O)C(=O)C=C(O)C1=O [Embelin]					Minimum Effective Dose [1]: 16 mg
O=c1c(-c2ccc(O)cc2)coc2cc(O)cc(O)c12 [Genistein]	−2.1 ± 46.2	1.8 ± 7.6	5.8 ± 6.8	15	
COc1cc(-c2oc3cc(O)cc(O)c3c(=O)c2O)ccc1O [Isorhamnetin]	13.8 ± 1.0	20.0 ± 4.6	31.3 ± 1.3	14	
O=c1cc(-c2ccc(O)cc2)oc2cc(O)c([C@@H]3O[C@H](CO)[C@@H](O)[C@H](O)[C@H]3O)c(O)c12 [Isovitexin]	13.9 ± 2.3	5.8 ± 2.7	1.1 ± 7.1	24	
